# Measurements as given in patent publication US20060029743A1, “Wood preservatives and methods of wood preservation” (priority 2004, published 2006).
# Read-outs that look alike come from different tables or passages of the source.
# Assays:
# Test in all cases: 6-well plate assay, minimal inhibitory concentration
# Type in all cases: cell-based
# [1] = tested on: Chaetomium globosum; conditions: for MIC: Chaetomium globosum, 168 h, read-out: Effectiveness at Inhibiting Wood-Rotting Fungi, SR1 (minimal inhibitory concentration)
# Procedure: (§1) The minimal inhibitory concentration of fungicides against eight fungi was determined in 6-well microtiter plates. Minimal inhibitory concentration is defined as the lowest concentration at which no fungus growth is evident after seven days. A group of eight fungi were used in a screen to identify potential active ingredients to preserve wood. The eight fungi, their classification, and the growth media used to culture them are listed below:
# (§2) Growth media were purchased from Difco (from Beckton Dickinson and Co., Sparks, Md.). The growth media were added to water to 2% w/v and autoclaved at 121° C. for 30 min. Autoclaved media were allowed to cool down to ˜50° C. Test chemicals were dissolved in DMSO (dimethyl sulfoxide) individually at 10 mg/mL to generate stock solutions. An appropriate amount of a stock solution was then added to the appropriate growth medium at 50° C. to make up the test media containing various concentrations of individual test chemicals. 10 mL of the medium was added to each well of a 6-well plate and allowed to solidify at room temperature. For each plate, the first well had no chemical, and the remaining five wells contained a particular test chemical at five different concentrations. Eight such plates were prepared for each chemical, using the eight media listed above for the eight test organisms.
# (§3) After the media solidified and cooled, a plug (˜2 mm×2 mm) of agar growth medium with fresh grown mycelium from the appropriate fungal culture was used to inoculate each well. The plate was placed in an incubator, and the growth of the fungus monitored. After 4 to 7 days, the growth was scored manually.
# [2] = tested on: Postia placenta; conditions: for MIC: Rhodonia placenta, 168 h, read-out: Effectiveness at Inhibiting Wood-Rotting Fungi, BR1 (minimal inhibitory concentration)
# Procedure: as §1, §2, §3
# [3] = tested on: Trametes versicolor; conditions: for MIC: Trametes versicolor, 168 h, read-out: Effectiveness at Inhibiting Wood-Rotting Fungi, WR1 (minimal inhibitory concentration)
# Procedure: as §1, §2, §3
# [4] = tested on: Antrodia vaillantii; conditions: for MIC: Fibroporia vaillantii, 168 h, read-out: Effectiveness at Inhibiting Wood-Rotting Fungi, BR3 (minimal inhibitory concentration)
# Procedure: as §1, §2, §3
# [5] = tested on: Phanerochaete chrysosporium; conditions: for MIC: Phanerodontia chrysosporium, 168 h, read-out: Effectiveness at Inhibiting Wood-Rotting Fungi, WR3 (minimal inhibitory concentration)
# Procedure: as §1, §2, §3
# [6] = tested on: Gloeophyllum trabeum; conditions: for MIC: Gloeophyllum trabeum, 168 h, read-out: Effectiveness at Inhibiting Wood-Rotting Fungi, BR2 (minimal inhibitory concentration)
# Procedure: as §1, §2, §3
# [7] = tested on: Irpex lacteus; conditions: for MIC: Irpex lacteus, 168 h, read-out: Effectiveness at Inhibiting Wood-Rotting Fungi, WR2 (minimal inhibitory concentration)
# Procedure: as §1, §2, §3
# [8] = 6-well agar plate, lowest concentration with no growth after seven days
Compound,"MIC [1, 8]","MIC [2, 8]","MIC [3, 8]","MIC [4, 8]","MIC [5, 8]","MIC [6, 8]","MIC [7, 8]",further results
Oc1cccc2cccnc12 [8-Hydroxyquinoline],–,–,–,–,–,–,–,MIC [1]: > 100 µg/mL; MIC [2]: 1 to 100 µg/mL; MIC [3]: 1 to 100 µg/mL; MIC [4]: < 1 µg/mL; MIC [5]: > 100 µg/mL; MIC [6]: > 100 µg/mL; MIC [7]: 1 to 100 µg/mL
CC(C)(C)C(O)(CCc1ccc(Cl)cc1)Cn1cncn1 (stereo not shown) [Tebuconazole],1 to 100 µg/mL,< 1 µg/mL,< 1 µg/mL,< 1 µg/mL,< 1 µg/mL,< 1 µg/mL,< 1 µg/mL,–
COC(=O)Nc1nc2ccccc2[nH]1 [Carbendazim],< 1 µg/mL,1 to 100 µg/mL,> 100 µg/mL,1 to 100 µg/mL,1 to 100 µg/mL,> 100 µg/mL,1 to 100 µg/mL,–
CON=C(C(=O)OC)c1ccccc1CON=C(C)c1cccc(C(F)(F)F)c1 [Trifloxystrobin],> 100 µg/mL,1 to 100 µg/mL,> 100 µg/mL,< 1 µg/mL,> 100 µg/mL,< 1 µg/mL,> 100 µg/mL,–
O=[N+]([O-])c1cc(C(F)(F)F)c(Cl)c([N+](=O)[O-])c1Nc1ncc(C(F)(F)F)cc1Cl [Fluazinam],< 1 µg/mL,< 1 µg/mL,1 to 100 µg/mL,< 1 µg/mL,1 to 100 µg/mL,< 1 µg/mL,1 to 100 µg/mL,–
CCCC1COC(Cn2cncn2)(c2ccc(Cl)cc2Cl)O1 (stereo not shown) [Propiconazole],< 1 µg/mL,< 1 µg/mL,< 1 µg/mL,< 1 µg/mL,< 1 µg/mL,< 1 µg/mL,< 1 µg/mL,–
CO/C=C(\C(=O)OC)c1ccccc1Oc1cc(Oc2ccccc2C#N)ncn1 [Axoxystrobin],–,–,–,–,–,–,–,"Effectiveness at Inhibiting Wood-Rotting Fungi, SR1 (minimal inhibitory concentration) [1, 8]: 3 (“3” indicates inhibition (if any) only at >100 ppm); Effectiveness at Inhibiting Wood-Rotting Fungi, BR1 (minimal inhibitory concentration) [2, 8]: 1 (“1” indicates effective inhibition at 1 ppm or less); Effectiveness at Inhibiting Wood-Rotting Fungi, WR1 (minimal inhibitory concentration) [3, 8]: 3 (“3” indicates inhibition (if any) only at >100 ppm); Effectiveness at Inhibiting Wood-Rotting Fungi, BR3 (minimal inhibitory concentration) [4, 8]: 1 (“1” indicates effective inhibition at 1 ppm or less); Effectiveness at Inhibiting Wood-Rotting Fungi, WR3 (minimal inhibitory concentration) [5, 8]: 3 (“3” indicates inhibition (if any) only at >100 ppm); Effectiveness at Inhibiting Wood-Rotting Fungi, BR2 (minimal inhibitory concentration) [6, 8]: 1 (“1” indicates effective inhibition at 1 ppm or less); Effectiveness at Inhibiting Wood-Rotting Fungi, WR2 (minimal inhibitory concentration) [7, 8]: 3 (“3” indicates inhibition (if any) only at >100 ppm)"
CC(Cc1ccc(C(C)(C)C)cc1)CN1C[C@@H](C)O[C@@H](C)C1 (stereo partly shown) [Fenpropimorph],> 100 µg/mL,< 1 µg/mL,1 to 100 µg/mL,1 to 100 µg/mL,1 to 100 µg/mL,< 1 µg/mL,1 to 100 µg/mL,–
Nc1nc(=O)[nH]cc1F [5-Fluorocytosine],> 100 µg/mL,< 1 µg/mL,1 to 100 µg/mL,1 to 100 µg/mL,> 100 µg/mL,> 100 µg/mL,> 100 µg/mL,–
CC(C)(C)C(O)C(Oc1ccc(Cl)cc1)n1cncn1 (stereo not shown) [Baytan],–,–,–,–,–,–,–,"Effectiveness at Inhibiting Wood-Rotting Fungi, SR1 (minimal inhibitory concentration) [1, 8]: 3 (“3” indicates inhibition (if any) only at >100 ppm); Effectiveness at Inhibiting Wood-Rotting Fungi, BR1 (minimal inhibitory concentration) [2, 8]: 2 (“2” indicates inhibition at about 1-100 ppm); Effectiveness at Inhibiting Wood-Rotting Fungi, WR1 (minimal inhibitory concentration) [3, 8]: 1 (“1” indicates effective inhibition at 1 ppm or less); Effectiveness at Inhibiting Wood-Rotting Fungi, BR3 (minimal inhibitory concentration) [4, 8]: 1 (“1” indicates effective inhibition at 1 ppm or less); Effectiveness at Inhibiting Wood-Rotting Fungi, WR3 (minimal inhibitory concentration) [5, 8]: 1 (“1” indicates effective inhibition at 1 ppm or less); Effectiveness at Inhibiting Wood-Rotting Fungi, BR2 (minimal inhibitory concentration) [6, 8]: 1 (“1” indicates effective inhibition at 1 ppm or less); Effectiveness at Inhibiting Wood-Rotting Fungi, WR2 (minimal inhibitory concentration) [7, 8]: 1 (“1” indicates effective inhibition at 1 ppm or less)"
CC1=C(C(=O)Nc2ccccc2)SCCO1 [Carboxin],–,–,–,–,–,–,–,MIC [1]: 1 to 100 µg/mL; MIC [2]: 1 to 100 µg/mL; MIC [3]: < 1 µg/mL; MIC [4]: < 1 µg/mL; MIC [5]: < 1 µg/mL; MIC [6]: < 1 µg/mL; MIC [7]: < 1 µg/mL
O=[N+]([O-])c1c(Cl)c(Cl)c(Cl)c(Cl)c1Cl [Pentachloronitrobenzene],–,–,–,–,–,–,–,MIC [1]: < 1 µg/mL; MIC [2]: 1 to 100 µg/mL; MIC [3]: > 100 µg/mL; MIC [4]: > 100 µg/mL; MIC [5]: > 100 µg/mL; MIC [6]: 1 to 100 µg/mL; MIC [7]: > 100 µg/mL
CCCCNC(=O)n1c(NC(=O)OC)nc2ccccc21 [Benomyl],< 1 µg/mL,1 to 100 µg/mL,> 100 µg/mL,1 to 100 µg/mL,1 to 100 µg/mL,> 100 µg/mL,> 100 µg/mL,–
CN(C)C(=S)[S-].CN(C)C(=S)[S-].CN(C)C(=S)[S-].[Fe+3] [Ferbam],–,–,–,–,–,–,–,"Effectiveness at Inhibiting Wood-Rotting Fungi, SR1 (minimal inhibitory concentration) [1, 8]: 2 (“2” indicates inhibition at about 1-100 ppm); Effectiveness at Inhibiting Wood-Rotting Fungi, BR1 (minimal inhibitory concentration) [2, 8]: 1 (“1” indicates effective inhibition at 1 ppm or less); Effectiveness at Inhibiting Wood-Rotting Fungi, WR1 (minimal inhibitory concentration) [3, 8]: 2 (“2” indicates inhibition at about 1-100 ppm); Effectiveness at Inhibiting Wood-Rotting Fungi, BR3 (minimal inhibitory concentration) [4, 8]: 2 (“2” indicates inhibition at about 1-100 ppm); Effectiveness at Inhibiting Wood-Rotting Fungi, WR3 (minimal inhibitory concentration) [5, 8]: 2 (“2” indicates inhibition at about 1-100 ppm); Effectiveness at Inhibiting Wood-Rotting Fungi, BR2 (minimal inhibitory concentration) [6, 8]: 3 (“3” indicates inhibition (if any) only at >100 ppm); Effectiveness at Inhibiting Wood-Rotting Fungi, WR2 (minimal inhibitory concentration) [7, 8]: 2 (“2” indicates inhibition at about 1-100 ppm)"
CCCN(CCOc1c(Cl)cc(Cl)cc1Cl)C(=O)n1ccnc1 [Prochloraz],–,–,–,–,–,–,–,MIC [1]: < 1 µg/mL; MIC [2]: > 100 µg/mL; MIC [3]: 1 to 100 µg/mL; MIC [4]: 1 to 100 µg/mL; MIC [5]: 1 to 100 µg/mL; MIC [6]: > 100 µg/mL; MIC [7]: 1 to 100 µg/mL
c1ccc2[nH]c(-c3cscn3)nc2c1 [Thiabendazole],< 1 µg/mL,> 100 µg/mL,> 100 µg/mL,> 100 µg/mL,> 100 µg/mL,> 100 µg/mL,> 100 µg/mL,–
